{"source": "patent US8133986B2", "about": "“Methylated CpG island amplification (MCA)” (The Johns Hopkins University School of Medicine, priority 1998, dated 2012)", "type_in_all_cases": "cell-based, human", "key": {"versican": {"tested_on": "versican", "assay": "RT-PCR expression of versican in methylated colon cancer cell lines after demethylating treatment", "settings": "1 μM for 2-5 days", "source_text": "To determine whether some of these clones truly represented genes silenced by methylation, we examined the versican gene in more detail. Versican is a secreted glycoprotein that appears to be regulated by the Rb tumor suppressor gene. MINT11 corresponds to part of exon 1 and part of intron 1 of the versican gene (FIG. 3A). Hypermethylation of the two SmaI sites in exon 1 and intron 1 in colon cancer cell lines was confirmed by both Southern blot analysis and MCA. In order to determine if this methylation was representative of the entire CGI, including the proximal promoter, PCR was performed on bisulfite-treated DNA using primers designed to amplify the region around the transcription start site of this gene. The PCR product was then digested with restriction enzymes that distinguish methylated from unmethylated DNA. […] In primary colon tumors, versican was hypermethylated in 17 out of 25 cases (68%). […] The level of methylation in normal colon mucosa increased with age of the patient (FIG. 3C), from an average of 6.9% in patients between 20 and 30 years of age, to an average of 28.9% in patients over 80. […] Using RT-PCR, we next examined the expression of versican in normal colon mucosa and CRC cell lines.\nTotal RNA was prepared from normal colon epithelium and tumor cell lines using TRIZOL (GIBCO-BRL). […] The expression of versican was determined by RT-PCR using the primers […]"}, "[1]": {"tested_on": "region 7 of CACNA1G CpG island", "assay": "Bisulfite-PCR methylation analysis of the 5′ CpG island of CACNA1G after treatment", "settings": "same cell lines after treatment; bisulfite-PCR (FIG. 3C)", "source_text": "The CACNA1G CpG island is 4 kb, and is larger than many typical CpG islands. MINT31 corresponds to the 5′ edge of the island while CACNA1G is in the 3′ region. It is not known whether large CpG islands such as this are coordinately regulated with regards to protection from methylation, and aberrant methylation in cancer. To address this issue, the methylation status of the 5′ region of CACNA1G was studied using bisulfite-PCR of DNA from normal tissues as well as 35 human cancer cell lines from colon, lung, prostate, breast and hematopoietic tumors. The CpG island was divided into 8 regions and their methylation status was examined separately. The genomic DNA was treated with sodium bisulfite and PCR amplified using primers containing no or a minimum number of CpG sites. Methylated alleles were detected by digesting the PCR products using restriction enzymes which specifically cleave sites created or retained due to the presence of methylated CpGs. None of the regions was methylated in normal colon, consistent with a uniform protection against de-novo methylation. […]"}, "CACNA1G": {"tested_on": "CACNA1G", "assay": "Re-expression of CACNA1G mRNA (RT-PCR) in methylated tumor cell lines after methyl-transferase inhibitor treatment", "parameters": "dose or concentration left out as unconfirmed", "settings": "RKO, SW48, Raji (pattern 4) and MB-231, MB-435 (pattern 5) cell lines; treated", "method": "To determine the expression of CACNA1G in normal and neoplastic human cells, RT-PCR was performed using cDNA from various normal tissues and from a panel of 27 tumor cell lines. CACNA1G was expressed ubiquitously in a variety of tissues and cell lines. In normal tissues expression was relatively low but easily detectable, while most cell lines had relatively high expression of CACNA1G. However, some cell lines had negligible or totally absent levels of CACNA1G expression. The results of CACNA1G expression was correlated with the detailed methylation analysis previously described. In this analysis, a remarkable pattern emerged. Methylation of region 1-4 and 8 had no effect on CACNA1G expression. However, there was a strong correlation between methylation of regions 5-7 and expression of the gene. In fact, all cell lines that lack methylation of this region strongly express the gene. All 6 cell lines with pattern 4 methylation studied had no detectable expression. Finally, the 7 cell lines with pattern 5 methylation (examples DLD-1 and MB-453) had variable levels of expression ranging from very low to near normal. […]\nTotal RNA was prepared from normal colon epithelium and tumor cell lines using TRIZOL (GIBCO-BRL). […] The expression of versican was determined by RT-PCR using the primers"}}, "data": [{"smiles": "Nc1ncn([C@H]2C[C@H](O)[C@@H](CO)O2)c(=O)n1", "note": "[5-aza-deoxycytidine, 5-aza-2′-deoxycytidine]", "values": [{"measurement": "Expression of versican", "setting": "versican", "result": "easily restored"}, {"measurement": "Methylation of region 7 of CACNA1G", "setting": "[1]", "result": "demethylation of region 7 was observed"}, {"measurement": "CACNA1G mRNA expression", "setting": "CACNA1G", "result": "re-expressed"}]}]}
